In patent US20250122155A1, “NOVEL INDOLE DERIVATIVE, PHARMACEUTICAL COMPOSITION COMPRISING SAME, AND USE THEREOF” (MITOIMMUNE THERAPEUTICS INC., priority 2021, published 2025):

What was measured:
H9C2 cells = assay: Protective effect on heart cells against t-BHP (LDH release); type: cell-based; conditions: H9C2, t-BHP 400 μM, 2 hours, read-out: EC50 (μM), Cell Protection Effect against t-BHP in Heart Cells
Procedure, shortened: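 H9C2 cells (1.5×10^4/well, cultured 24 h) were pretreated 15–20 min with compound at 0.01–30 μM final, then exposed 2 h to 400 μM t-BHP. LDH in supernatant was measured colorimetrically at 490 nm after 30 min room-temperature reaction; EC50 derived from protection.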

NRK-49F cells = assay: Cell death protective effect in renal fibroblasts against Erastin, glutamate and RSL3 (LDH); type: cell-based, rat; conditions: 24 hours
Procedure: In order to identify the protective effect on renal fibroblasts, NRK-49F cells were divided into 96-well plates by 1×10^4 and cultured for 18 to 24 hours. The compounds of Examples were diluted to final concentrations of 0.1 and 1 μM, treated in each well, and incubated for 15 to 20 minutes. Erastin, glutamate, and RSL3 were treated to have final concentrations of 3 μM, 75 mM, and 3 μM, respectively, and cultured for 24 hours. In order to identify the protective effect of each compound, the degree of LDH extracellular secretion was measured using cytotoxicity LDH assay kit [Dojindo; CK12]. Briefly, at the time when the treatment of the cells with Erastin, glutamate, and RSL3 for 24 hours is completed, the supernatants containing the cells are taken by 70 μl and transferred to a new 96-well plate. The assay buffer included in the kit is added in an amount of 70 μL/well (the same amount as the sample) thereto, and then the plate is wrapped with a foil and the reaction is performed at room temperature for 15 minutes.

PC-12 cells = assay: Cell death protective effect in adrenal cells against Erastin, glutamate and RSL3 (LDH); type: cell-based, rat; conditions: 24 hours
Procedure: In order to identify the protective effect on adrenal cells, PC-12 cells were divided into 96-well plates by 1×10^4 and cultured for 18 to 24 hours. The compounds of Examples were diluted to final concentrations of 0.1 and 1.0 μM in Erastin, 0.01 and 0.1 in glutamate, and 0.3 and 3.0 μM in RSL3, treated in each well, and incubated for 15 to 20 minutes. Erastin, glutamate, and RSL3 were treated to have final concentrations of 1 μM, 10 mM, and 0.3 μM, respectively, and cultured for 24 hours. In order to identify the protective effect of each compound, the degree of LDH extracellular secretion was measured using cytotoxicity LDH assay kit [Dojindo; CK12]. Briefly, at the time when the treatment of the cells with Erastin, glutamate, and RSL3 for 24 hours is completed, the supernatants containing the cells are taken by 70 μL and transferred to a new 96-well plate. The assay buffer included in the kit is added in an amount of 70 μL/well (the same amount as the sample) thereto, and then the plate is wrapped with a foil and the reaction is performed at room temperature for 15 minutes. After observing the changed color of the sample, the stop solution was added in an amount of 35 µL/well thereto, and then the 0 inhibition value was calculated by measuring the absorbance value at a wavelength of 490 nm using an iD3 spectrophotometer.

ARPE-19 cells = assay: Cell death protective effect in retinal epithelial cells against Erastin and RSL3 (LDH); type: cell-based, human; conditions: 24 hours
Procedure: In order to identify the protective effect on retinal epithelial cells, ARPE-19 cells were divided into 96-well plates by 1×10^4 and cultured for 18 to 24 hours. The compounds of Examples were diluted to final concentrations of 0.03 and 0.3 μM, treated in each well, and incubated for 20 minutes. Erastin, and RSL3 were treated to have final concentrations of 10 μM, and 0.3 μM, respectively, and cultured for 24 hours. In order to identify the protective effect of each compound, the degree of LDH extracellular secretion was measured using cytotoxicity LDH assay kit [Dojindo; CK12]. Briefly, at the time when the treatment of the cells with Erastin, and RSL3 for 24 hours is completed, the supernatants containing the cells are taken by 70 μL and transferred to a new 96-well plate. The assay buffer included in the kit is added in an amount of 70 μL/well (the same amount as the sample) thereto, and then the plate is wrapped with a foil and the reaction is performed at room temperature for 15 minutes.

MLE-12 cells = assay: Cell death protective effect in lung epithelial cells against RSL3 (LDH); type: cell-based, rat; conditions: MLE-12, RSL3 1.0 μM, 24 hours
Procedure: In order to identify the protective effect on lung epithelial cells, MLE-12 cells were divided into 96-well plates by 5×10^3 and cultured for 18 to 24 hours. The compounds of Examples were diluted to final concentrations of 0.1 and 1.0 μM, treated in each well, and incubated for 20 minutes. RSL3 was treated to have final concentrations of 1.0 μM, respectively, and cultured for 24 hours. In order to identify the protective effect of each compound, the degree of LDH extracellular secretion was measured using cytotoxicity LDH assay kit [Dojindo; CK12]. Briefly, at the time when the treatment of the cells with RSL3 for 24 hours is completed, the supernatants containing the cells are taken by 70 μL and transferred to a new 96-well plate. The assay buffer included in the kit is added in an amount of 70 μL/well (the same amount as the sample) thereto, and then the plate is wrapped with a foil and the reaction is performed at room temperature for 15 minutes.

[1] = Glutamate 75 mM, compound 0.1 μM
[2] = Glutamate 75 mM, compound 1.0 μM
[3] = PC-12, Erastin 1 μM, compound 0.1 μM
[4] = PC-12, Erastin 1 μM, compound 1.0 μM
[5] = PC-12, Glutamate 10 mM, compound 0.01 μM
[6] = PC-12, Glutamate 10 mM, compound 0.1 μM
[7] = PC-12, RSL3 0.3 μM, compound 0.3 μM
[8] = PC-12, RSL3 0.3 μM, compound 3.0 μM
[9] = ARPE-19, Erastin 10 μM, compound 0.03 μM
[10] = ARPE-19, Erastin 10 μM, compound 0.3 μM
[11] = ARPE-19, RSL3 0.3 μM, compound 0.03 μM
[12] = ARPE-19, RSL3 0.3 μM, compound 0.3 μM

Compound	EC50 (H9C2 cells)	inhibition (%) (NRK-49F cells; Erastin 3 μM, compound 0.1 μM)	inhibition (%) (NRK-49F cells; Erastin 3 μM, compound 1.0 μM)	inhibition (%) (NRK-49F cells; [1])	inhibition (%) (NRK-49F cells; [2])	inhibition (%) (NRK-49F cells; RSL3 3 μM, compound 0.1 μM)	inhibition (%) (NRK-49F cells; RSL3 3 μM, compound 1.0 μM)	inhibition (%) (PC-12 cells; [3])	inhibition (%) (PC-12 cells; [4])	inhibition (%) (PC-12 cells; [5])	inhibition (%) (PC-12 cells; [6])	inhibition (%) (PC-12 cells; [7])	inhibition (%) (PC-12 cells; [8])	inhibition (%) (ARPE-19 cells; [9])	inhibition (%) (ARPE-19 cells; [10])	inhibition (%) (ARPE-19 cells; [11])	inhibition (%) (ARPE-19 cells; [12])	inhibition (%) (MLE-12 cells; compound 0.1 μM)	inhibition (%) (MLE-12 cells; compound 1.0 μM)
COCCOCc1cc(NC2CCN(C(C)=O)CC2)c2[nH]c(-c3ccccc3)cc2c1 [Example 30, 1-[4-[[5-(2-methoxyethoxymethyl)-2-phenyl-1H-indol-7-yl]amino]piperidyl]-1-ethanone]	≤ 0.3 µM	98%	98%	97%	100%	52%	98%	86%	100%	33%	95%	100%	100%	80%	100%	60%	100%	84%	95%
COCCOCc1cc(NC2CCNCC2)c2[nH]c(-c3ccccc3)cc2c1 [Example 64, 5-((2-methoxyethoxy)methyl)-2-phenyl-N-(piperidin-4-yl)-1H-indol-7-amine]	≤ 0.3 µM	100%	100%	7%	99%	70%	100%	100%	100%	39%	97%	78%	100%	100%	100%	67%	100%	100%	98%
